Like-named read-outs stand apart in the source and are kept apart here.
Experiments:
Type in all cases: biochemical
DPP8 [1] = target: T1, DPP8 (Homo sapiens, UniProt Q6V1X1); experiment: Time-dependent DPP8 inhibition kinetics (kobs, KI, kinact, kapp); conditions: for kobs: n=3
T1 construct: purchased Proteros Biostructures GmbH, Germany
Method: (§1) To calculate the reaction rate of covalent bond formation between DPP proteins and inhibitor, kinact, KI and kapp was determined as previously described[30],[51]. Therefore, 250 µM GP-AMC was added simultaneously with a serial dilution of the inhibitor to 10 nM enzyme. Enzyme activity was measured for a maximum of 120 min at 30 °C, and fluorescence intensities were then plotted against time. Data was fitted to the following equation: Y=(vi/kobs)*(1−exp(−kobs*X)) using Graph-Pad Prism v10.2.3. The obtained pseudo-first-order rate constant was used to determine the maximum enzyme inhibition rate (kinact) and binding affinity (KI) by fitting the plot of kobs against inhibitor concentration to the following equation: Y=kinact/1+(KI/[I]) . The efficiency of covalent bond formation (kapp) was calculated by the ratio of kinact/KI. All measurements were performed in triplicates and error bars represent standard errors of the fit.

DPP4 [2] = target: T2, DPP4 (Homo sapiens, UniProt P27487); conditions: DPP4, n=3
T2 construct: purchased Proteros Biostructures GmbH, Germany
T2 sequence (P27487 whole entry): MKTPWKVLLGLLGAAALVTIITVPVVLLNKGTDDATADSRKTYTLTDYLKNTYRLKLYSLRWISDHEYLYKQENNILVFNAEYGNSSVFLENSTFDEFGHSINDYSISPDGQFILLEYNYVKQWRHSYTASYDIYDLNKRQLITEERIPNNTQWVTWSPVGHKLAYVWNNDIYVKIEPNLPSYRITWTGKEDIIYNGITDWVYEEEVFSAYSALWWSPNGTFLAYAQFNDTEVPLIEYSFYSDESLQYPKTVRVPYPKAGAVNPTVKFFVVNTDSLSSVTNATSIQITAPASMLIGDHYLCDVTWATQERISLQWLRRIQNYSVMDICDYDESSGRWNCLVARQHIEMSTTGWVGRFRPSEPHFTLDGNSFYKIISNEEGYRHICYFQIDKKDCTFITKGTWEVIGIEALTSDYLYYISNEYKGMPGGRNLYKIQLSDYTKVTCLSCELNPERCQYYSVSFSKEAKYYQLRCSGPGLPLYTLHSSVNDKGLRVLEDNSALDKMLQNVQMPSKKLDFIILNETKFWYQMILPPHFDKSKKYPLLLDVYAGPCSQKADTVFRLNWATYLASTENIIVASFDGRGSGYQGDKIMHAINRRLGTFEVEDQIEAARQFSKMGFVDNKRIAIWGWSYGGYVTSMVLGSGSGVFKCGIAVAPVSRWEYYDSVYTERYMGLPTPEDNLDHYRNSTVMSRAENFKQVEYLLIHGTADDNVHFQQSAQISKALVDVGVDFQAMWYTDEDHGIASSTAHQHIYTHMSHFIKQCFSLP
Method: as §1, with “Therefore, 250 µM GP-AMC was added simultaneously with a serial dilution of the inhibitor to 10 nM enzyme.” left out

DPP9 [3] = target: T3, DPP9 (Homo sapiens, UniProt Q86TI2); experiment: biochemical; parameters: purchased Proteros Biostructures GmbH, Germany
T3 sequence (Q86TI2 whole entry): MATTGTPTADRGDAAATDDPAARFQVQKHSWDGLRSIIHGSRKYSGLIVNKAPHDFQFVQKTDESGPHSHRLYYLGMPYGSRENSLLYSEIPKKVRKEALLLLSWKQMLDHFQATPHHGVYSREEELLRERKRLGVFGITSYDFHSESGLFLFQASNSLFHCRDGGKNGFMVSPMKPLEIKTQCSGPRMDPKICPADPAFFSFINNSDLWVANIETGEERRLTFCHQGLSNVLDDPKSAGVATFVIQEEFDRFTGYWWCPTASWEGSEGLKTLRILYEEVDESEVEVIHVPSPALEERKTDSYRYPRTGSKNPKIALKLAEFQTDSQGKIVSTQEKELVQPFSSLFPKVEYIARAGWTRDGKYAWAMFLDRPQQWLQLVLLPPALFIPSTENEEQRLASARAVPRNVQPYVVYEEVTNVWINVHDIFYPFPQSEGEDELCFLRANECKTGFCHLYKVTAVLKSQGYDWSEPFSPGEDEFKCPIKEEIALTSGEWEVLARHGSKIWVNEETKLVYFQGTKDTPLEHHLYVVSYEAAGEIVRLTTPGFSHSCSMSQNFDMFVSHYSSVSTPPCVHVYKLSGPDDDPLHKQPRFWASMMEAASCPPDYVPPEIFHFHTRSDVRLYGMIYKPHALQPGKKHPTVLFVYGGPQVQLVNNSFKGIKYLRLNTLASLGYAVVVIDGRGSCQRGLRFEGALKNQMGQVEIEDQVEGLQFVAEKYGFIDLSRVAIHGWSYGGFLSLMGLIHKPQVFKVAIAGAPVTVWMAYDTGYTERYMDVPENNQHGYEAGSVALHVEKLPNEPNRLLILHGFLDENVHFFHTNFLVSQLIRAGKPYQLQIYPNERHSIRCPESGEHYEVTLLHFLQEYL
Method: (§2) Enzyme activity of DPP4, DPP8, DPP9 (Proteros Biostructures GmbH, Germany) and PREP (Sigma Aldrich, USA) was determined by measuring the initial velocity of AMC release from the fluorogenic substrate GP-AMC (Sigma Aldrich, USA) using a Tecan Spark® 10 M multimode microplate reader (Tecan Group Ltd., Switzerland) in activity buffer (20 mM HEPES/KOH pH 7.3, 110 mM potassium acetate, 2 mM Mg acetate, 0.5 mM EGTA, 0.02% Tween 20, supplemented with 1 mM DTT) and a final volume of 20 μL for maximal 60 min at 30 °C. Prior to activity measurement, 10 nM enzyme was incubated for 45 min at 30 °C and gentle shaking with the inhibitor compounds in concentrations ranging from 0 to 100 μM. The compounds were dissolved in DMSO and diluted in activity buffer (final DMSO concentration: 1%). […] IC50 values were calculated using Graph-Pad Prism v10.2.3 using the equation: [Inhibitor] vs. response—Variable slope (four parameters). All measurements were performed in triplicates and error bars represent standard errors of the fit.

DPP9 [4] = target: T3, DPP9; experiment: Time-dependent DPP9 inhibition kinetics (kobs, KI, kinact, kapp); parameters: purchased Proteros Biostructures GmbH, Germany; conditions: DPP9, n=3
Method: as §1

DPP8 [5] = target: T1, DPP8; experiment: biochemical
Method: as §2

DPP4 [6] = target: T2, DPP4; experiment: biochemical
Method: as §2

T1 sequence (Q6V1X1 whole entry): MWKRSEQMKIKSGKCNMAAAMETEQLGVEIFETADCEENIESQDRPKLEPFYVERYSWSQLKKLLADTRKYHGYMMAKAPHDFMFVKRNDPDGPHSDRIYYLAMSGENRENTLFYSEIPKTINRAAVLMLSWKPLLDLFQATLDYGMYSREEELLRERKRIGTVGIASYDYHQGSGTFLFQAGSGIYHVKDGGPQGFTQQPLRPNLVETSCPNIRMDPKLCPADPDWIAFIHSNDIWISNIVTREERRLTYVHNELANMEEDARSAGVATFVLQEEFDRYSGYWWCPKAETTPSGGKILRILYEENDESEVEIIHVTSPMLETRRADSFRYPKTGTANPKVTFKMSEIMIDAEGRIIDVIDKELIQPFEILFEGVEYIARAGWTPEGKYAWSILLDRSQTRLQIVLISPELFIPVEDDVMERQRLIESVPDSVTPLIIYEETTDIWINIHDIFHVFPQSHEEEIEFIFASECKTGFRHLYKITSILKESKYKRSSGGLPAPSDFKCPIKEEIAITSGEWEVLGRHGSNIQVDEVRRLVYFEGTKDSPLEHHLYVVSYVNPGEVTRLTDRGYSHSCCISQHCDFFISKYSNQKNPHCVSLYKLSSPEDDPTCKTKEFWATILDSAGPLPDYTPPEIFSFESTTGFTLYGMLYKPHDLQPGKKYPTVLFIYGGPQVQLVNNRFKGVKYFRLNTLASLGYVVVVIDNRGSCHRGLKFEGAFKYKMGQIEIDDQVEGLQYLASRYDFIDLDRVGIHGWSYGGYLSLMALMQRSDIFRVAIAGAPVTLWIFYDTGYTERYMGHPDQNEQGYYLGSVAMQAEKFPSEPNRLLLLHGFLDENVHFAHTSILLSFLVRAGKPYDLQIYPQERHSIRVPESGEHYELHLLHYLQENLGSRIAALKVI

CCCCCCP(=O)(OCC)N1CCC[C@H](N)C1=O (some centres unmarked) [Compound 5]
kapp (DPP8 [1]; DPP8): 36.00 M⁻¹ s⁻¹
kinact best fit (DPP8 [1]; DPP8): 0.0004148 s⁻¹
kobs (DPP8 [1]; DPP8, c 1562.5 nM): 9.14e-05 s⁻¹
kobs (DPP8 [1]; DPP8, c 6250 nM): 0.000151 s⁻¹
kobs (DPP8 [1]; DPP8, c 25000 nM): 0.000235 s⁻¹
kobs (DPP8 [1]; DPP8, c 50000 nM): 0.00037 s⁻¹
kapp DPP8 (DPP8 [1]; ratio kinact/KI): 36 M⁻¹ s⁻¹
KI (inactivation) (DPP8 [1]; read-out: KI DPP8, irreversible inhibition, fit of kobs vs inhibitor concentration): 11.5 µM
KI (inactivation) (DPP8 [1]; read-out: KI best fit, DPP8): 11.5 µM
KI (inactivation) (DPP8 [1]; read-out: KI best fit, DPP8, fit of kobs vs inhibitor concentration): 11.5 µM
kinact (DPP8 [1]; read-out: kinact DPP8, irreversible inhibition, fit of kobs vs inhibitor concentration): 0.00042 ± 7e-05 s⁻¹
kinact (DPP8 [1]; read-out: kinact best fit, DPP8): 0.000415 s⁻¹
kobs (DPP4 [2]; c 25000 nM): 0.001878 s⁻¹
kobs (DPP4 [2]; c 50000 nM): 0.001819 s⁻¹
kobs (DPP4 [2]; c 100000 nM): 0.001824 s⁻¹
IC50 (DPP9 [3]): 42.7 µM
remaining activity at 1.5625 µM (DPP9 [3]; read-out: DPP9 activity [%], c 1562.5 nM, replicates): 97%
remaining activity at 3.125 µM (DPP9 [3]; read-out: DPP9 activity [%], c 3125 nM, replicates): 96.9%
remaining activity at 6.25 µM (DPP9 [3]; read-out: DPP9 activity [%], c 6250 nM, replicates): 89.1%
remaining activity at 15.625 µM (DPP9 [3]; read-out: DPP9 activity [%], c 15625 nM, replicates): 77.4%
remaining activity at 25 µM (DPP9 [3]; read-out: DPP9 activity [%], c 25000 nM, replicates): 65.7%
remaining activity at 31.25 µM (DPP9 [3]; read-out: DPP9 activity [%], c 31250 nM, replicates): 60.7%
remaining activity at 50 µM (DPP9 [3]; read-out: DPP9 activity [%], c 50000 nM, replicates): 45.5%
remaining activity at 62.5 µM (DPP9 [3]; read-out: DPP9 activity [%], c 62500 nM, replicates): 38.8%
remaining activity at 100 µM (DPP9 [3]; read-out: DPP9 activity [%], c 100000 nM, replicates): 22.1%
remaining activity at 250 µM (DPP9 [3]; read-out: DPP9 activity [%], c 250000 nM, replicates): 5.77%
remaining activity at 500 µM (DPP9 [3]; read-out: DPP9 activity [%], c 500000 nM, replicates): 1.09%
kobs (DPP9 [4]; c 25000 nM): 0.000207 s⁻¹
kobs (DPP9 [4]; c 50000 nM): 0.000227 s⁻¹
kobs (DPP9 [4]; c 100000 nM): 0.000318 s⁻¹
IC50 (DPP8 [5]): 13.7 µM
remaining activity at 1.5625 µM (DPP8 [5]; read-out: DPP8 activity [%], c 1562.5 nM, replicates): 94.2%
remaining activity at 3.125 µM (DPP8 [5]; read-out: DPP8 activity [%], c 3125 nM, replicates): 84.3%
remaining activity at 6.25 µM (DPP8 [5]; read-out: DPP8 activity [%], c 6250 nM, replicates): 64.1%
remaining activity at 15.625 µM (DPP8 [5]; read-out: DPP8 activity [%], c 15625 nM, replicates): 42.1%
remaining activity at 25 µM (DPP8 [5]; read-out: DPP8 activity [%], c 25000 nM, replicates): 28.4%
remaining activity at 31.25 µM (DPP8 [5]; read-out: DPP8 activity [%], c 31250 nM, replicates): 19.4%
remaining activity at 50 µM (DPP8 [5]; read-out: DPP8 activity [%], c 50000 nM, replicates): 13.9%
remaining activity at 62.5 µM (DPP8 [5]; read-out: DPP8 activity [%], c 62500 nM, replicates): 4.38%
remaining activity at 100 µM (DPP8 [5]; read-out: DPP8 activity [%], c 100000 nM, replicates): 5.19%
IC50 (DPP4 [6]; IC50 DPP4, GP-AMC 250 µM, 10 nM enzyme, 45 min pre-incubation at 30 °C): 46.7 µM
remaining activity at 1.5625 µM (DPP4 [6]; read-out: DPP4 activity [%], c 1562.5 nM, replicates): 101%
remaining activity at 3.125 µM (DPP4 [6]; read-out: DPP4 activity [%], c 3125 nM, replicates): 103%
remaining activity at 6.25 µM (DPP4 [6]; read-out: DPP4 activity [%], c 6250 nM, replicates): 105%
remaining activity at 25 µM (DPP4 [6]; read-out: DPP4 activity [%], c 25000 nM, replicates): 79.6%
remaining activity at 50 µM (DPP4 [6]; read-out: DPP4 activity [%], c 50000 nM, replicates): 44.3%
remaining activity at 100 µM (DPP4 [6]; read-out: DPP4 activity [%], c 100000 nM, replicates): 23.3%
